# Data reported in patent US6352958B1, “Cycloimido-substituted benzofused heterocyclic herbicides” (FMC Corporation, priority 1997, dated 2002).
# Experiments:
# Assay type in all cases: in vivo
# [1] = tested on: soybean (Glycine max var. Winchester); assay: Preemergence herbicidal activity, soybean; conditions: Rate of Application 0.3 Kg/Ha, examined after 12-17 days
# [2] = tested on: wheat (Triticum aestivum var. Lew); assay: Preemergence herbicidal activity, wheat; conditions: Rate of Application 0.3 Kg/Ha, examined after 12-17 days
# [3] = tested on: field corn (Zea mays var. Pioneer 3732); assay: Preemergence herbicidal activity, corn; conditions: Rate of Application 0.3 Kg/Ha, examined after 12-17 days
# [4] = tested on: velvetleaf (Abutilon theophrasti); assay: Preemergence herbicidal activity, velvetleaf; conditions: Rate of Application 0.3 Kg/Ha, examined after 12-17 days
# [5] = tested on: morningglory (Ipomea lacunosa or Ipomea hederacea); assay: Preemergence herbicidal activity, morningglory; conditions: Rate of Application 0.3 Kg/Ha, examined after 12-17 days
# [6] = tested on: common chickweed (Stellaria media); assay: Preemergence herbicidal activity, chickweed; conditions: Rate of Application 0.3 Kg/Ha, examined after 12-17 days
# [7] = tested on: common cocklebur (Xanthium strumarium L.); assay: Preemergence herbicidal activity, cocklebur; conditions: Rate of Application 0.3 Kg/Ha, examined after 12-17 days
# [8] = tested on: blackgrass (Aloepecurus myosuroides); assay: Preemergence herbicidal activity, blackgrass; conditions: Rate of Application 0.3 Kg/Ha, examined after 12-17 days
# [9] = tested on: green foxtail (Setaria viridis); assay: Preemergence herbicidal activity, green foxtail; conditions: Rate of Application 0.3 Kg/Ha, examined after 12-17 days
# [10] = tested on: Johnsongrass (Sorghum halepense); assay: Preemergence herbicidal activity, johnsongrass; conditions: Rate of Application 0.3 Kg/Ha, examined after 12-17 days
# [11] = tested on: soybean (Glycine max var. Winchester); assay: Postemergence herbicidal activity, soybean; conditions: rate of application 0.3 Kg/Ha, rated after 12-17 days
# [12] = tested on: wheat (Triticum aestivum var. Lew); assay: Postemergence herbicidal activity, wheat; conditions: rate of application 0.3 Kg/Ha, rated after 12-17 days
# [13] = tested on: field corn (Zea mays var. Pioneer 3732); assay: Postemergence herbicidal activity, corn; conditions: rate of application 0.3 Kg/Ha, rated after 12-17 days
# [14] = tested on: velvetleaf (Abutilon theophrasti); assay: Postemergence herbicidal activity, velvetleaf; conditions: rate of application 0.3 Kg/Ha, rated after 12-17 days
# [15] = tested on: morningglory (Ipomea lacunosa or Ipomea hederacea); assay: Postemergence herbicidal activity, morningglory; conditions: rate of application 0.3 Kg/Ha, rated after 12-17 days
# [16] = tested on: common chickweed (Stellaria media); assay: Postemergence herbicidal activity, chickweed; conditions: rate of application 0.3 Kg/Ha, rated after 12-17 days
# [17] = tested on: common cocklebur (Xanthium strumarium L.); assay: Postemergence herbicidal activity, cocklebur; conditions: rate of application 0.3 Kg/Ha, rated after 12-17 days
# [18] = tested on: blackgrass (Aloepecurus myosuroides); assay: Postemergence herbicidal activity, blackgrass; conditions: rate of application 0.3 Kg/Ha, rated after 12-17 days
# [19] = tested on: green foxtail (Setaria viridis); assay: Postemergence herbicidal activity, green foxtail; conditions: rate of application 0.3 Kg/Ha, rated after 12-17 days
# [20] = tested on: Johnsongrass (Sorghum halepense); assay: Postemergence herbicidal activity, johnsongrass; conditions: rate of application 0.3 Kg/Ha, rated after 12-17 days
SMILES,PREEMERGENCE HERBICIDAL ACTIVITY (% CONTROL) SOY [1],PREEMERGENCE HERBICIDAL ACTIVITY (% CONTROL) WHT [2],PREEMERGENCE HERBICIDAL ACTIVITY (% CONTROL) CRN [3],PREEMERGENCE HERBICIDAL ACTIVITY (% CONTROL) ABUTH [4],PREEMERGENCE HERBICIDAL ACTIVITY (% CONTROL) IPOSS [5],PREEMERGENCE HERBICIDAL ACTIVITY (% CONTROL) STEME [6],PREEMERGENCE HERBICIDAL ACTIVITY (% CONTROL) XANPE [7],PREEMERGENCE HERBICIDAL ACTIVITY (% CONTROL) ALOMY [8],PREEMERGENCE HERBICIDAL ACTIVITY (% CONTROL) SETVI [9],PREEMERGENCE HERBICIDAL ACTIVITY (% CONTROL) SORHA [10],Postemergence herbicidal activity (% control) SOY [11],Postemergence herbicidal activity (% control) WHT [12],Postemergence herbicidal activity (% control) CRN [13],Postemergence herbicidal activity (% control) ABUTH [14],Postemergence herbicidal activity (% control) IPOSS [15],Postemergence herbicidal activity (% control) STEME [16],Postemergence herbicidal activity (% control) XANPE [17],Postemergence herbicidal activity (% control) ALOMY [18],Postemergence herbicidal activity (% control) SETVI [19],Postemergence herbicidal activity (% control) SORHA [20]
Cn1c(C(F)(F)F)cc(=O)n(-c2c(F)cc(Cl)c3[nH]c(C4CCCCC4)nc23)c1=O [Compound 373],100%,70%,90%,100%,100%,100%,100%,70%,100%,90%,100%,80%,100%,100%,100%,100%,100%,100%,100%,100%
Cc1nc2c(-n3c(=O)cc(C(F)(F)F)n(C)c3=O)c(F)cc(Cl)c2o1 [Compound 1],100%,85%,90%,100%,100%,100%,100%,90%,100%,95%,95%,65%,80%,100%,100%,90%,100%,70%,80%,80%
CC(Cl)c1cc2c(Cl)cc(F)c(-n3c(=O)cc(C(F)(F)F)n(C)c3=O)c2o1 (stereo not shown) [Compound 234],100%,100%,100%,100%,100%,100%,100%,80%,100%,100%,100%,100%,100%,100%,100%,100%,100%,100%,100%,100%
CCOC(=O)c1cc2c(-n3c(=O)cc(C(F)(F)F)n(C)c3=O)c(F)cc(Cl)c2n1C [Compound 522],90%,40%,80%,100%,100%,100%,50%,75%,100%,100%,90%,45%,90%,100%,100%,100%,100%,50%,100%,100%
Cn1c(C(F)(F)F)cc(=O)n(-c2c(F)cc(Cl)c3cc(C(C)(C)O)oc23)c1=O [Compound 242],100%,100%,100%,100%,100%,100%,100%,100%,100%,100%,100%,100%,100%,100%,100%,100%,100%,100%,100%,100%
Cn1c(C(F)(F)F)cc(=O)n(-c2c(F)cc(Cl)c3oc(N)nc23)c1=O [Compound 38],60%,50%,80%,100%,100%,0%,70%,30%,75%,60%,70%,35%,60%,100%,100%,0%,45%,20%,40%,50%
Cc1nc2c(-n3c(=O)cc(C(F)(F)F)n(N)c3=O)c(F)cc(Cl)c2o1 [Compound 112],100%,100%,100%,100%,100%,100%,100%,100%,100%,100%,100%,100%,100%,100%,100%,100%,100%,100%,100%,100%
CC(C)c1nc2c(-n3c(=O)cc(C(F)(F)F)n(C)c3=O)c(F)cc(Cl)c2[nH]1 [Compound 368],100%,100%,95%,100%,100%,100%,100%,95%,100%,100%,100%,100%,100%,100%,100%,100%,100%,100%,100%,100%
